# Laboratory results as given in publication PMC6297231 (Nature Communications, 2018).
# Where two headings read alike, the source gives them in different places.
# Experiments:
# [1] = Plasma protein binding in fetal calf serum; type: in vitro ADME; conditions: bovine, read-out: plasma protein binding, free
# [2] = tested on: murine Eµ-Myc lymphoma tumors; experiment: GFP-labeled Eµ-Myc lymphoma model; type: in vivo, mice; conditions: 100 mg kg^−1 on day 3 and day 10 post-transplantation
# From the text: Eµ-Myc: These studies complied with all ethical regulations in accordance with the guidelines established by the Institutional Animal Experimentation Ethics Committee, Peter MacCallum Cancer Center. Non-irradiated C57BL/6 mice between 6 and 8 weeks old were transplanted by tail vein injection with 100,000 GFP-labeled Eμ-Myc lymphoma cells[39] harvested from lymph nodes of a syngeneic mouse. Treatment started 3 days after implantation. AZD5991 and vehicle were formulated and administered as mentioned above. Peripheral blood was collected by retro-orbital sampling 11 days post-transplantation and GFP-expressing leukemic cells assessed by flow cytometry using a BD FACSCanto II cytometer and data analyzed using Flowlogic software. Gating strategy is shown in Supplementary Figure 8.
# MOLP8 = experiment: Cell viability assay; type: cell-based; conditions: Homo sapiens, MOLP-8, 24 h; MOLP8 (MM); read-out: AZD5991 24h GI50
# OPM2 = experiment: Cell viability assay; type: cell-based; conditions: Homo sapiens, OPM-2, 24 h; OPM2 (MM); read-out: AZD5991 24h GI50
# Protocol: (§1) Cells were plated at 3000 cells/well in 384-well white plates in corresponding cell growth media. […] Caspase-3/7 activation was subsequently determined using a Caspase-Glo 3/7 Reagent (Promega) and viability was assayed using the CellTiter-Glo Reagent (Promega) as described in manufacturer’s instructions. Dose–response curves for caspase-3/7 activation and viability were plotted and analyzed (including EC50 and GI50 determination) using GraphPad Prism.
# KMS11 = experiment: Cell viability assay; type: cell-based; conditions: Homo sapiens, KMS-11, 24 h; KMS11 (MM); read-out: AZD5991 24h GI50
# Protocol: as §1
# MV411 = experiment: Cell viability assay; type: cell-based; conditions: Homo sapiens, MV4-11, 24 h; MV411 (AML); read-out: AZD5991 24h GI50
# Protocol: as §1
# Nomo1 = experiment: Cell viability assay; type: cell-based; conditions: Homo sapiens, NOMO-1, 24 h; Nomo1 (AML); read-out: AZD5991 24h GI50
# Protocol: as §1
# PL21 = experiment: Cell viability assay; type: cell-based; conditions: PL-21, 24 h; PL21 (AML); read-out: AZD5991 24h GI50
# Protocol: as §1
# HL60 = experiment: Cell viability assay; type: cell-based; conditions: Homo sapiens, HL-60, 24 h; HL60 (AML); read-out: AZD5991 24h GI50
# Protocol: as §1
# Bjab = experiment: Cell viability assay; type: cell-based; conditions: Homo sapiens, 24 h; Bjab (NHL); read-out: AZD5991 24h GI50
# Protocol: as §1
# GRANTA519 = experiment: Cell viability assay; type: cell-based; conditions: Homo sapiens, Granta-519, 24 h; GRANTA519 (NHL); read-out: AZD5991 24h GI50
# Protocol: as §1
# MWCL1 = experiment: Cell viability assay; type: cell-based; conditions: 24 h; MWCL1 (NHL); read-out: AZD5991 24h GI50
# Protocol: as §1
# OCILY1 = experiment: Cell viability assay; type: cell-based; conditions: Homo sapiens, OCI-Ly1, 24 h; OCILY1 (NHL); read-out: AZD5991 24h GI50
# Protocol: as §1
# Sudhl16 = experiment: Cell viability assay; type: cell-based; conditions: Homo sapiens, SU-DHL-16, 24 h; Sudhl16 (NHL); read-out: AZD5991 24h GI50
# Protocol: as §1
# Calu1 = experiment: Cell viability assay; type: cell-based; conditions: Homo sapiens, Calu-1, 24 h; Calu1 (Lung); read-out: AZD5991 24h GI50
# Protocol: as §1
# H1048 = experiment: Cell viability assay; type: cell-based; conditions: Homo sapiens, NCI-H1048, 24 h; H1048 (Lung); read-out: AZD5991 24h GI50
# Protocol: as §1
# H23 = experiment: Cell viability assay; type: cell-based; conditions: Homo sapiens, NCI-H23, 24 h; H23 (Lung); read-out: AZD5991 24h GI50
# Protocol: as §1
# H460 = experiment: Cell viability assay; type: cell-based; conditions: Homo sapiens, NCI-H460, 24 h; H460 (Lung); read-out: AZD5991 24h GI50
# Protocol: as §1
# LUDLU1 = experiment: Cell viability assay; type: cell-based; conditions: LUDLU-1, 24 h; LUDLU1 (Lung); read-out: AZD5991 24h GI50
# Protocol: as §1
# MDAMB231 = experiment: Cell viability assay; type: cell-based; conditions: Homo sapiens, MDA-MB-231, 24 h; MDAMB231 (Breast); read-out: AZD5991 24h GI50
# Protocol: as §1
# A375 = experiment: Cell viability assay; type: cell-based; conditions: Homo sapiens, A-375, 24 h; A375 (Skin); read-out: AZD5991 24h GI50
# Protocol: as §1
# MALME3M = experiment: Cell viability assay; type: cell-based; conditions: Homo sapiens, Malme-3M, 24 h; MALME3M (Skin); read-out: AZD5991 24h GI50
# Protocol: as §1
# DLD1 = experiment: Cell viability assay; type: cell-based; conditions: Homo sapiens, DLD-1, 24 h; DLD1 (GI); read-out: AZD5991 24h GI50
# Protocol: as §1
# GIST 430/654 = experiment: Cell viability assay; type: cell-based; conditions: 24 h; GIST 430/654 (GI); read-out: AZD5991 24h GI50
# Protocol: as §1
# GIST T1 = experiment: Cell viability assay; type: cell-based; conditions: Homo sapiens, GISTT1, 24 h; GIST T1 (GI); read-out: AZD5991 24h GI50
# Protocol: as §1
# FaDu = experiment: Cell viability assay; type: cell-based; conditions: Homo sapiens, 24 h; FaDu (Others); read-out: AZD5991 24h GI50
# Protocol: as §1
# OCIM1 = experiment: Caspase-3/7 activation assay; type: cell-based; conditions: OCI-M1, 6 h
# Protocol: as §1
# CMK = experiment: Caspase-3/7 activation assay; type: cell-based; conditions: Homo sapiens, 6 h
# Protocol: as §1
compound,measurement,setting,value
"Cc1c2c(nn1C)CSCc1cc(n(C)n1)CSc1cc(c3ccccc3c1)OCCCc1c(C(=O)O)n(C)c3c-2c(Cl)ccc13 (atropisomer, axis not shown; (Ra)) [(Ra)-7]",fraction unbound,[1],0.001
same,survival vs. vehicle control group,[2],prolonged survival
same,leukemic cells in peripheral blood,[2]; day 11,depletion of leukemic cells from peripheral blood
same,GI50,MOLP8,52 nM
same,GI50,OPM2,57 nM
same,GI50,KMS11,540 nM
same,GI50,MV411,13 nM
same,GI50,Nomo1,21 nM
same,GI50,PL21,403 nM
same,GI50,HL60,543 nM
same,GI50,Bjab,16 nM
same,GI50,GRANTA519,19300 nM
same,GI50,MWCL1,1650 nM
same,GI50,OCILY1,561 nM
same,GI50,Sudhl16,119 nM
same,GI50,Calu1,> 30000 nM
same,GI50,H1048,4250 nM
same,GI50,H23,122 nM
same,GI50,H460,26400 nM
same,GI50,LUDLU1,991 nM
same,GI50,MDAMB231,> 30000 nM
same,GI50,A375,13500 nM
same,GI50,MALME3M,19500 nM
same,GI50,DLD1,15100 nM
same,GI50,GIST 430/654,1620 nM
same,GI50,GIST T1,> 30000 nM
same,GI50,FaDu,8870 nM
same,EC50,"OCIM1; read-out: 6h caspase EC50, OCIM1, single agent",> 333 nM
same,EC50,"OCIM1; read-out: AZD5991 6h EC50, OCIM1 (AML), caspase 3/7 activation",> 30000 nM
same,EC50,"CMK; read-out: 6h caspase EC50, CMK, single agent",> 333 nM
same,EC50,"CMK; read-out: AZD5991 6h EC50, CMK (AML), caspase 3/7 activation",> 30000 nM
